# Source: US6465479B1, “Pyridomorphinans and use thereof” (Southern Research Institute, priority 1999, dated 2002)
# “And” between values parts separate entries of the source, which are not always exact repeats. Equal entries are not always repeated. “Also recorded” adds a separate entry of the source. Where two headings read alike, the source gives them in different places.
# Legend:
# mice = assay: Overt signs of toxicity in mice during the antinociceptive studies; conditions: dose ranges tested
# guinea pig ileum (GPI) = assay: Opioid agonist activity in electrically stimulated guinea pig ileum (GPI); assay type: cell-based
# delta-1 (DPDPE) = target: T1, delta-1 (DPDPE) (Mus musculus, UniProt P32300); assay: Antagonism of delta-1 agonist DPDPE antinociception in the 55° C. tail-flick test; assay type: in vivo
# T1 construct: male ICR mice(20-30 grams) were used; from tissue; host or cells: whole animal (male ICR mice), tail-flick test
# T1 sequence (P32300 whole entry): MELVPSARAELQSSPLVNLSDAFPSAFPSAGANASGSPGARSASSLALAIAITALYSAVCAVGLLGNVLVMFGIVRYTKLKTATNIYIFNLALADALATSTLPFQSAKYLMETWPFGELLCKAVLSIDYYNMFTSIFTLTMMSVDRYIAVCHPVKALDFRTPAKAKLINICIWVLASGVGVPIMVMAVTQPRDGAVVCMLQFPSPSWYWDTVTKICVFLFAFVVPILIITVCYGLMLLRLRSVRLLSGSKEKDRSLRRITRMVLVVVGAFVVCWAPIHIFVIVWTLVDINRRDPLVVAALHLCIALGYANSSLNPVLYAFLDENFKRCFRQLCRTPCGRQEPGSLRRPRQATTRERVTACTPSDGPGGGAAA
# Procedure: (§1) Antinociception was assessed using either the 55° C. warm-water tail-flick test or the acetic-acid writhing assay. […] Each mouse was first tested for baseline latency by immersing its tail in the water and recording the time to response. Mice not responding within 5 sec were excluded from further testing. Mice were then administered the test compound and tested for antinociception at 10, 20, 30, 45, 60 and 90 min post-injection. A maximum score was assigned (100%) to animals not responding within 15 sec to avoid tissue damage. Antinociception was calculated by the following formula: % antinociception=100×(test latency-control latency)/(15-control latency). For the acetic acid writhing test, mice were injected i.p. with 0.9% acetic acid. They were then placed in a clear Plexiglas observation jar and the number of abdominal writhes recorded for 15 min (Mogil et al., Heritability of nociception I: responses of 11 inbred mouse strains on 12 measures of nociception. Pain 80:67-82,1999). Percent antinociception was calculated using the formula: % MPE (maximum possible effect)=100−((#writhes individual mouse/mean # writhes control group)×100).
# (§2) Mice were then injected with A90 doses of selective mu, delta or kappa agonists and antinociception was assessed in the 55° C. tail-flick test.
# morphine pretreated mice = assay: Acute morphine physical dependence, precipitated withdrawal (vertical jumps)
# male ICR mice [1] = assay: Acetic acid writhing assay, antinociception, tolerance and antagonist pretreatment; assay type: in vivo, mouse; conditions: for Repeated Injections A50 (95% C.I.) i.c.v. / Repeated Injections A50 (95% C.I.) i.p. / Control A50 (95% C.I.) i.p. / Control A50 (95% C.I.) i.c.v.: acetic acid writhing; for Repeated Injections A50 (95% C.I.) i.c.v. / Repeated Injections A50 (95% C.I.) i.p.: after A90 dose ×2 daily, 3 days; for Control A50 (95% C.I.) i.p. / Control A50 (95% C.I.) i.c.v.: control mice
# Procedure: (§3) In the following examples, male ICR mice(20-30 grams) were used. […] The solution was brought up to approximately pH 5.5 with 1.74 M NaOH and then the final volume adjusted with distilled water. […] Additional compounds used in these studies were dissolved in distilled water (i.c.v. injections) or physiological saline (i.p. injections).
# as §1
# Control mice received a vehicle injection (5 μl distilled water, i.c.v., −24 hr).
# κ receptors = κ receptors (Cavia porcellus, UniProt P41144); conditions: read-out: K1 (nM) ± SEM K1 (κ); displacement of [3H]U69,593 (1.2-[…]), guinea pig brain membranes
# κ receptors, sequence (P41144 whole entry): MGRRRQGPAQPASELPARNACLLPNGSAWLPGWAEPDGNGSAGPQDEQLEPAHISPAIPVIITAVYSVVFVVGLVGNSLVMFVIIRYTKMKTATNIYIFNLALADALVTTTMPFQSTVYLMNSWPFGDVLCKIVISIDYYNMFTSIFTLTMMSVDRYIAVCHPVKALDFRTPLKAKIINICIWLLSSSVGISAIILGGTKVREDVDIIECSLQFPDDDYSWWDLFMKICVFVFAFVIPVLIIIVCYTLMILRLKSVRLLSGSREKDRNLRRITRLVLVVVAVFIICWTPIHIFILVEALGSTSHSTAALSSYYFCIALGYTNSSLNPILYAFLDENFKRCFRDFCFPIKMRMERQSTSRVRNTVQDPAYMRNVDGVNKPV
# μ receptors = target: T2, μ receptors (Rattus norvegicus, UniProt P33535); assay: μ opioid receptor binding, displacement of [3H]DAMGO in rat brain membranes; conditions: displacement of [3H]DAMGO (1.4-3.0 nM), read-out: K1 (nM) ± SEM μ
# T2 construct: from tissue; host or cells: rat brain membranes
# T2 sequence (P33535 whole entry): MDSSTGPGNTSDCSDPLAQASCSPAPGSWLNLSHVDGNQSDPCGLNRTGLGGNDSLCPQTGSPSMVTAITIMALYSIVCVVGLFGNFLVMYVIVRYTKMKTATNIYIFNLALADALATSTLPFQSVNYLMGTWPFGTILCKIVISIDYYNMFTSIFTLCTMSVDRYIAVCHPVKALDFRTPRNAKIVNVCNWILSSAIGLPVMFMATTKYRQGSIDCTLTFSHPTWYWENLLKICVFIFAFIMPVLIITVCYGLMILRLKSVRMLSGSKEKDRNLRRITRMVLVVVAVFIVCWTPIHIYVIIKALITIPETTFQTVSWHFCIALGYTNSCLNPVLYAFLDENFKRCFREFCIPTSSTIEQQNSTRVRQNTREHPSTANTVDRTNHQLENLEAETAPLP
# mouse vas deferens (MVD) [2] = assay: Opioid agonist activity in electrically stimulated mouse vas deferens (MVD); assay type: cell-based; conditions: percentage inhibition of contraction at 1 μM
# Procedure: The opioid agonist and antagonist potencies were determined on the electrically stimulated mouse vas deferens (MVD) and guinea pig ileum (GPI) smooth muscle preparations.
# [3] = target: T3, delta-2 ([D-Ala2, Glu4]deltorphin) (Mus musculus, UniProt P32300); assay: Antagonism of delta-2 agonist [D-Ala2, Glu4]deltorphin antinociception in the 55° C. tail-flick test; assay type: in vivo
# T3 construct: male ICR mice(20-30 grams) were used; from tissue; host or cells: whole animal (male ICR mice), tail-flick test
# T3 sequence (P32300 whole entry): as the sequence (P32300 whole entry) above
# Procedure: as §1, §2
# mu (DAMGO) = target: T4, mu (DAMGO) (Mus musculus, UniProt P42866); assay: Antagonism of mu agonist DAMGO antinociception in the 55° C. tail-flick test; assay type: in vivo
# T4 construct: male ICR mice(20-30 grams) were used; from tissue; host or cells: whole animal (male ICR mice), tail-flick test
# T4 sequence (P42866 whole entry): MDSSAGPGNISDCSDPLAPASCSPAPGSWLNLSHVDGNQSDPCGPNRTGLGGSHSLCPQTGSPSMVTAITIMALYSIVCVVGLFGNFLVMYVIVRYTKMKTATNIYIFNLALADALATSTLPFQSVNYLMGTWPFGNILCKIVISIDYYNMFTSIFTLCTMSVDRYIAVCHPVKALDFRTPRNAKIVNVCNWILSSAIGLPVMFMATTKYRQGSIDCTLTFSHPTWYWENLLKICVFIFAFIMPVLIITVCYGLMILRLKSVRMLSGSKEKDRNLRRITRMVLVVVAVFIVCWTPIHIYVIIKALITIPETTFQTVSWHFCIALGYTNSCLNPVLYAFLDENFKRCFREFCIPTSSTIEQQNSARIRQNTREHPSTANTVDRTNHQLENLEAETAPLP
# Procedure: as §1, §2
# kappa (U69,593) = target: T5, kappa (U69,593) (Mus musculus, UniProt P33534); assay: Antagonism of kappa agonist U69,593 antinociception in the 55° C. tail-flick test; assay type: in vivo
# T5 construct: male ICR mice(20-30 grams) were used; from tissue; host or cells: whole animal (male ICR mice), tail-flick test
# T5 sequence (P33534 whole entry): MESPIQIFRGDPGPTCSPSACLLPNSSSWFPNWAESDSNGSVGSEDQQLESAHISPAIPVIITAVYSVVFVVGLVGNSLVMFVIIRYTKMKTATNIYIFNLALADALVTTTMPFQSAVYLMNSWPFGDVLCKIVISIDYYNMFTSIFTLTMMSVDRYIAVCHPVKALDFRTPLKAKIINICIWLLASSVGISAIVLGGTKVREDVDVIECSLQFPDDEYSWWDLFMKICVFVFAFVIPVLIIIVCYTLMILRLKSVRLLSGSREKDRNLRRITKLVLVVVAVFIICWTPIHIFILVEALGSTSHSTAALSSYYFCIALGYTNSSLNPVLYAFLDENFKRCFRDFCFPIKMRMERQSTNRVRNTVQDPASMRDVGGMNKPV
# Procedure: as §1, §2
# male ICR mice [4] = assay: 55° C. warm-water tail-flick test, antinociception; assay type: in vivo, mouse; conditions: for agonist character in tail-flick, i.c.v.: icv injection
# Procedure: as §3, §1
# δ receptors = δ receptors (Rattus norvegicus, UniProt P33533); conditions: read-out: K1 (nM) ± SEM δ; displacement of [3H]DADLE (1.3-2.0 nM), rat brain membranes, 100 nM DAMGO to block μ sites
# δ receptors, sequence (P33533 whole entry): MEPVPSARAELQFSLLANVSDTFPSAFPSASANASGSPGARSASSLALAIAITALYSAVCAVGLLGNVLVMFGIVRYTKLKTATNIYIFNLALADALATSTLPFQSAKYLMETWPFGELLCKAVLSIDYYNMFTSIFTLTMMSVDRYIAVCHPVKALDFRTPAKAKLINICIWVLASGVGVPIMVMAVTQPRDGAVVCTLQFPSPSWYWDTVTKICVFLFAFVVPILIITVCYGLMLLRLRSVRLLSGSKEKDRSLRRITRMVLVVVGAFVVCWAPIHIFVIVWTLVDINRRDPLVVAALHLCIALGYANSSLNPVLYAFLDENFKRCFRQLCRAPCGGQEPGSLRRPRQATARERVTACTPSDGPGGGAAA
# mouse vas deferens (MVD) [5] = conditions: percentage inhibition of contraction at 1 μM; data from published sources; cited from earlier work
# [6] = tested on: μ opioid receptor (PL-017) in the GPI preparation; conditions: data from published sources; cited from earlier work
# [7] = target: T6, δ opioid receptor (DPDPE) in the MVD preparation (Mus musculus, UniProt P32300); conditions: data from published sources; cited from earlier work
# T6 construct: electrically stimulated mouse vas deferens (MVD) and guinea pig ileum (GPI) smooth muscle preparations; from tissue; host or cells: mouse vas deferens
# T6 sequence (P32300 whole entry): as the sequence (P32300 whole entry) above
structure (smiles),measurement,setting,value
"Oc1ccc2c3c1O[C@H]1c4ncc(-c5ccc(Cl)cc5)cc4C[C@@]4(O)[C@@H](C2)N(CC2CC2)CC[C@]314 [Compound 6d, 5′-(4-Chlorophenyl)-17-(Cyclopropylmethyl)-6,7-didehydro-3,14-dihydroxy-4,5α-epoxypyrido[2′3′:6,7]morphinan]",overt signs of toxicity,mice,did not display any overt signs of toxicity
same,agonist character in the GPI,guinea pig ileum (GPI),full agonist
same,IC50,"guinea pig ileum (GPI); Cavia porcellus, agonist",163 nM
same,ID50 (mg/kg) against DPDPE,"delta-1 (DPDPE); i.p. pretreatment -20 min, A90 i.c.v. agonist 30 nmol",15.3 mg/kg
same,"antagonism of delta-1 agonist DPDPE, in words","delta-1 (DPDPE); i.p., compared with delta-2",much less potent
same,vertical jumps precipitated in morphine pretreated mice,"morphine pretreated mice; 10 mg/kg i.p., 4 hr after morphine 100 mg/kg, vs naloxone 10 mg/kg i.p., p<0.001",significantly less vertical jumps than naloxone injection
same,attenuation of naloxone precipitated withdrawal (jumps),"morphine pretreated mice; coadministration 6d 10 mg/kg i.p. + naloxone 10 mg/kg i.p., p<0.05",significantly less jumps than naloxone alone; also recorded: attenuated opioid withdrawal
same,number of writhes,"male ICR mice [1]; 30 nmol i.c.v. (A90), vs vehicle, p<0.001",significantly decreased the number of writhes
same,Repeated Injections A50 (95% C.I.) i.c.v.,male ICR mice [1],10.9 nmol (7.2-16.5
same,Repeated Injections A50 (95% C.I.) i.p.,male ICR mice [1],3.85 mg/kg (0.9-16.0
same,Control A50 (95% C.I.) i.p.,male ICR mice [1],4.6 mg/kg (2.5-8.6
same,"agonist character in acetic acid writhing, i.c.v.",male ICR mice [1]; icv injection,full agonist activity
same,blockade of antinociception by delta or kappa antagonist pretreatment,"male ICR mice [1]; naltrindole 20 mg/kg i.p. -20 min (p>0.99) or nor-BNI 1 nmol i.c.v. -24 hr (p>0.13), 6d 30 nmol i.c.v.",not by naltrindole (p>0.99) or nor-BNI
same,blockade of antinociception by mu antagonist pretreatment,"male ICR mice [1]; β-FNA 19 nmol i.c.v. -24 hr, 6d 30 nmol i.c.v., p<0.002",blocked by pre-treatment with β-FNA
same,Ki,κ receptors,20 ± 1.04 nM
same,Ki,μ receptors,51 ± 8 nM
same,agonist activity MVD % max resp,mouse vas deferens (MVD) [2],21%
same,"antagonism of delta-2 agonist, in words",[3]; i.p.,potently antagonized
same,"ID50 (mg/kg) against [D-Ala2, Glu4]deltorphin","[3]; i.p. pretreatment -20 min, A90 i.c.v. agonist 20 nmol",3.4 mg/kg
same,ID50 (mg/kg) against DAMGO,"mu (DAMGO); i.p. pretreatment -20 min, A90 i.c.v. agonist 0.1 nmol",28.9 mg/kg
same,"antagonism of mu agonist DAMGO, in words","mu (DAMGO); i.p., compared with delta-2",much less potent
same,"ID50 (mg/kg) against U69,593","kappa (U69,593); i.p. pretreatment -20 min, A90 i.c.v. agonist 60 nmol, tail-flick",>60 mg/kg
same,"effect on antinociception of kappa agonist U69,593, in words","kappa (U69,593); i.p., doses of up to 60 mg/kg",did not affect
same,% MPE tail flick,"male ICR mice [4]; 100 nmol i.c.v., mice",40.3 % MPE
same,A50 tail-flick i.c.v.,"male ICR mice [4]; 55° C. tail-flick, mice",greater than 100 nmol
same,"agonist character in tail-flick, i.c.v.",male ICR mice [4]; 55° C. tail-flick,only partial agonist effects
same,"antinociceptive effect in tail flick, i.p.","male ICR mice [4]; i.p., doses up to 60 mg/kg",no measurable antinociceptive effect
same,Ki,δ receptors,2.2 ± 0.16 nM
"CN1CC[C@]23c4c5ccc(O)c4O[C@H]2[C@@H](O)C=C[C@H]3[C@H]1C5 [morphine, reference compound]",Repeated Injections A50 (95% C.I.) i.c.v.,male ICR mice [1],0.05 nmol (0.03-0.08
same,Control A50 (95% C.I.) i.c.v.,male ICR mice [1],0.004 nmol
same,Control A50 (95% C.I.) i.c.v.,male ICR mice [1]; listed as Morphine,0.004 nmol (0.003-0.006
same,Repeated Injections A50 (95% C.I.) i.p.,male ICR mice [1],4.78 mg/kg (3.7-6.2
same,Control A50 (95% C.I.) i.p.,male ICR mice [1],2.2 mg/kg (1.8-2.7
same,A50 tail-flick i.c.v.,"male ICR mice [4]; 55° C. tail-flick, mice",2.94 nmol and 1.7 nmol
same,A50 tail-flick i.p.,"male ICR mice [4]; 55° C. tail-flick, i.p., mice",8.0 mg/kg
same,"agonist character in tail-flick, i.c.v.",male ICR mice [4]; 55° C. tail-flick,full agonist effect
Oc1ccc2c3c1O[C@H]1c4[nH]c5ccccc5c4C[C@@]4(O)[C@@H](C2)N(CC2CC2)CC[C@]314 [naltrindole],Ki,κ receptors,35.8 ± 4 nM
same,agonist activity MVD % max resp,mouse vas deferens (MVD) [5],16%
same,antagonist activity PL-017 (μ) Ke,[6],43 nM
same,antagonist activity DPDPE (δ) Ke,[7],0.49 nM
same,Ki,δ receptors,0.41 ± 0.09 nM
